IC50 data for 39 molecules are collected here from patent US20170291905A1, “ARGININE […] INHIBITORS AND USES THEREOF” (Epizyme, Inc., priority 2014, published 2017).

As usually defined, the IC50 is the midpoint of a concentration-inhibition curve. High values mean weaker potency, low ones greater potency.

Chain of full-length human PRMT8 isoform 1 (Q9NR22 whole entry, canonical isoform): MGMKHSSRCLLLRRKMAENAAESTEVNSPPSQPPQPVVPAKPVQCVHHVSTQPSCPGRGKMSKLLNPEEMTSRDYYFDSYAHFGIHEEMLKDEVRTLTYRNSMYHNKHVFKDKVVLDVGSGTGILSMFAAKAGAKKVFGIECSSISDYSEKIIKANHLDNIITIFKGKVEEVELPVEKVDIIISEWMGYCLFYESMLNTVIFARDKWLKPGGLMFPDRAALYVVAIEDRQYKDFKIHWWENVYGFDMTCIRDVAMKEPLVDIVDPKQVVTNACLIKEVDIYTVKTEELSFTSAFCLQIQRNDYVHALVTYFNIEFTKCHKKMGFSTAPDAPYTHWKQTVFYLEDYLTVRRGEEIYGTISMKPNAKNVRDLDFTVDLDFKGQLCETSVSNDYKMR

One assay deals with full-length human PRMT8 isoform 1 (Homo sapiens, UniProt Q9NR22). The experiment in a line: PRMT8 biochemical assay (3H-SAM Flashplate, histone H4 31-45 peptide). Particulars: 1.5 nM PRMT8, 30 min preincubation, 150 nM peptide. The source says:
S-adenosylmethionine (SAM), S-adenosylhomocysteine (SAH), bicine, Tween20, dimethylsulfoxide (DMSO), bovine skin gelatin (BSG), isopropyl-β-D-thiogalactopyranoside (IPTG), and Tris(2-carboxyethyl)phosphine hydrochloride solution (TCEP) were purchased from Sigma-Aldrich at the highest level of purity possible. ^3H-SAM was purchase from American Radiolabeled Chemicals with a specific activity of 80 Ci/mmol. 384-well streptavidin Flashplates were purchased from PerkinElmer.
Peptide representative of human histone H4 residues 31-45 was synthesized with an N-terminal linker-affinity tag motif and a C-terminal amide cap by 21st Century Biochemicals. The peptide was purified by high-performance liquid chromatography (HPLC) to greater than 95% purity and confirmed by liquid chromatography mass spectrometry (LC-MS). The sequence was Biot-Ahx-[…]-amide (SEQ ID NO.:8).
The resulting construct encodes an N-terminal GST tag and a thrombin cleavage sequence
E. coli (BL21(DE3) Gold, Stratagene) made competent by the CaCl2 method were transformed with the PRMT8 construct and ampicillin selection. Protein over-expression was accomplished by growing the PRMT8 expressing E. coli clone and inducing expression with 0.3 mM IPTG at 16° C. The culture was grown for 12 hours, harvested by centrifugation, and stored at −80° C. for purification.
GST-tagged PRMT8 was eluted with 50 mM Tris, 2 mM glutathione, pH 7.8. Pooled fractions were cleaved by thrombin (10U) and dialysed in buffer A. GST was removed by reloading the cleaved protein sample onto glutathione sepharose column and PRMT8 was collected in the flow-through fractions. PRMT8 was purified further by ceramic hydroxyapatite chromatography. The column was washed with 50 mM phosphate buffer, 100 mM NaCl, 5% glycerol, 5 mM […], pH 7.8 and PRMT8 was eluted by 100 mM phosphate in the same buffer. Protein was concentrated and buffer was exchanged to 50 mM Tris, 300 mM NaCl, 10% glycerol, 5 mM β-mercaptoethanol, pH 7.8 by ultrafiltration. The purity of recovered protein was 89%.
General Procedure for PRMT8 Enzyme Assays on Peptide Substrates.
The assays were all performed in a buffer consisting of 20 mM Bicine (pH=7.6), 1 mM TCEP, 0.005% BSG, and 0.002% Tween 20, prepared on the day of use. Compounds in 100% DMSO (1 ul) were spotted into a polypropylene 384-well V-bottom plates (Greiner) using a Platemate Plus outfitted with a 384-channel head (Thermo Scientific). DMSO (1 ul) was added to Columns 11, 12, 23, 24, rows A-H for the maximum signal control and 1 ul of SAH, a known product and inhibitor of PRMT8, was added to columns 11, 12, 23, 24, rows I-P for the minimum signal control. A cocktail (40 ul) containing the PRMT8 enzyme was added by Multidrop Combi (Thermo-Fisher). The compounds were allowed to incubate with PRMT8 for 30 min at room temperature, then a cocktail (10 ul) containing ^3H-SAM and peptide was added to initiate the reaction (final volume=51 ul). The final concentrations of the components were as follows: PRMT8 was 1.5 nM, ^3H-SAM was 50 nM, non-radiolabeled SAM was 550 nM, peptide was 150 nM, SAH in the minimum signal control wells was 1 mM, and the DMSO concentration was 2%. The assays were stopped by the addition of non-radiolabeled SAM (10 ul) to a final concentration of 400 uM, which dilutes the ^3H-SAM to a level where its incorporation into the peptide substrate is no longer detectable. 50 ul of the reaction in the 384-well polypropylene plate was then transferred to a 384-well Flashplate and the biotinylated peptides were allowed to bind to the streptavidin surface for at least 1 hour before being washed once with 0.1% Tween20 in a Biotek ELx405 plate washer. The plates were then read in a PerkinElmer TopCount plate reader to measure the quantity of ^3H-labeled peptide bound to the Flashplate surface, measured as disintegrations per minute (dpm) or alternatively, referred to as counts per minute (cpm). […]
Consider `CNCCN(C)Cc1c[nH]nc1[C@H]1CC[C@]2(CCCOC2)CC1` [compound 4, N1-((3-((6s,9s)-2-oxaspiro[5.5]undecan-9-yl)-1H-pyrazol-4-yl)methyl)-N1,N2-dimethylethane-1,2-diamine], for which it took 16 nM to reach half-maximal inhibition (IC50). This lies in the double-digit nanomolar range.
Same read-out and setting: with `CNCCN(C)Cc1c[nH]nc1C1C[C@@H](C(=O)N(C)CC(C)C)C(C)(C)[C@H](C(=O)N(C)CC(C)C)C1` (stereo partly drawn) [compound 12] the figure was greater than 10000 nM.
In turn, `CC[C@]12CC[C@](CC)(C[C@H](c3n[nH]cc3CN(C)CCNC)C1)O2` [compound 37, N1-((3-((1R,3r,5S)-1,5-diethyl-8-oxabicyclo[3.2.1]octan-3-yl)-1H-pyrazol-4-yl)methyl)-N1,N2-dimethylethane-1,2-diamine] came in with an IC50 of 45.5 nM.
Still for that read-out and setting: the value for `CNCCN(C)Cc1c[nH]nc1[C@H]1CC[C@@]2(CCCCO2)CC1` [compound 3] was 32.8 nM.
In the case of `CNCCN(C)Cc1c[nH]nc1[C@H]1CC[C@@H](COCC(F)(F)F)CC1` [compound 23, N1,N2-dimethyl-N1-((3-((1s,4s)-4-((2,2,2-trifluoroethoxy)methyl)cyclohexyl)-1H-pyrazol-4-yl)methyl)ethane-1,2-diamine], the 50% inhibitory concentration (IC50) turned out to be 91.8 nM. Against the preceding molecule, the IC50 is about 2.8-fold higher.
On the same count and under the same terms, the value for `CNCCN(C)Cc1cn(C)nc1C1CCC(C)(C)[C@@H](C(=O)NCC(C)C)C1` (stereo partly drawn) [compound 25] was 2790 nM; that for `CNCCN(C)Cc1c(C)[nH]nc1[C@H]1CC[C@]2(CC1)CC(C)(C)CO2` [compound 58] was 55.1 nM; that for `CNCCN(C)Cc1c[nH]nc1C1CCC(C)(C)[C@H](COCCCOC)C1` (stereo partly drawn) [compound 30, {2-[({3-[(3R)-3-[(3-methoxypropoxy)methyl]-4,4-dimethylcyclohexyl]-1H-pyrazol-4-yl}methyl)(methyl)amino]ethyl}(methyl)amine] was 187 nM.
`CNCCN(C)Cc1c[nH]nc1[C@H]1CC[C@]2(CCN(CCC(C)C)C2=O)CC1` [compound 10] returned a half-maximal inhibitory concentration (IC50) of 106 nM.
Take `CNCCN(C)Cc1nnc(C)n1[C@H]1CC[C@]2(CC1)CC(C)(C)CO2` [compound 93]: the half-inhibitory concentration (IC50) is greater than 10000 nM.
Still for that read-out and setting: the value for `CNCCN(C)Cc1n[nH]cc1[C@H]1CC[C@]2(CC1)CC(C)(C)CO2` [compound 116] was 31.8 nM.
Still for that read-out and setting: with `CCOC[C@@H]1CC(c2n[nH]cc2CN(C)CCNC)CCC1(C)C` (stereo partly drawn) [compound 31, {2-[({3-[(3R)-3-(ethoxymethyl)-4,4-dimethylcyclohexyl]-1H-pyrazol-4-yl}methyl)(methyl)amino]ethyl}(methyl)amine] the figure was 325 nM.
On the same count and under the same terms, with `CNCCN(C)Cc1ccnn1[C@H]1CC[C@]2(CC1)CC(C)(C)CO2` [compound 50, N1-((1-((5r,8r)-3,3-dimethyl-1-oxaspiro[4.5]decan-8-yl)-1H-pyrazol-5-yl)methyl)-N1,N2-dimethylethane-1,2-diamine] the figure was 32.2 nM; with `CNCCN(C)Cc1c[nH]nc1C1CCC2(CCC(OC)CC2)CC1` (stereo not drawn) [compound 9, N1-((3-(9-methoxyspiro[5.5]undecan-3-yl)-1H-pyrazol-4-yl)methyl)-N1,N2-dimethylethane-1,2-diamine], 11.1 nM.
The molecule `CNCCN(C)Cc1c[nH]nc1C1CC(COCC2CC2)CC(COCC2CC2)C1` (stereo not drawn) [compound 2] displayed a 50% inhibitory concentration (IC50) of 365 nM.
The same measure, in the same setting: the value for `CNCCN(C)Cc1c[nH]nc1[C@H]1CC[C@@]2(CCCOC2)CC1` [compound 5, N1-((3-((6r,9r)-2-oxaspiro[5.5]undecan-9-yl)-1H-pyrazol-4-yl)methyl)-N1,N2-dimethylethane-1,2-diamine] was 17.7 nM.
`CNCCN(C)Cc1nn[nH]c1[C@H]1CC[C@@]2(CC1)CC(C)(C)CO2` [compound 67] came in with a half-inhibitory concentration (IC50) of 19.8 nM.
The same measure, in the same setting: with `Cc1[nH]nc(C2CCC3(CC2)CC(C)(C)CO3)c1CN(C)CCN` (stereo not drawn) [compound 59] the figure was 17.5 nM; with `CNCCN(C)Cc1c(C)[nH]nc1[C@H]1CC[C@@]2(CC1)CC(C)(C)CO2` [compound 57], 32.7 nM.
Molecule `CNCCN(C)Cc1cncn1[C@H]1CC[C@@]2(CC1)CC(C)(C)CO2` [compound 76] had a concentration for half-maximal inhibition (IC50) of 15.7 nM.
The molecule `CNCCN(C)Cc1cncn1[C@H]1CC[C@]2(CC1)CC(C)(C)CO2` [compound 98] registered an IC50 of 3680 nM.
The same measure, in the same setting: with `CCC1(CC)C[C@]2(CC[C@@H](c3n[nH]cc3CN(C)CCNC)CC2)OC1=O` [compound 34, (5r,8r)-3,3-diethyl-8-(4-((methyl(2-(methylamino)ethyl)amino)methyl)-1H-pyrazol-3-yl)-1-oxaspiro[4.5]decan-2-one] the figure was 146 nM; with `CNCCN(C)Cc1nn(C)cc1[C@H]1CC[C@]2(CC1)CC(C)(C)CO2` [compound 103], 42.7 nM.
On the same count and under the same terms, with `CNCCN(C)Cc1ncsc1[C@H]1CC[C@@]2(CC1)CC(C)(C)CO2` [compound 83] the figure was 18.5 nM.
Molecule `CN(CCN)Cc1c[nH]nc1[C@H]1CC[C@]2(CC1)CC(C)(C)CO2` [compound 106] gave an IC50 of 67.2 nM.
Turning to `CNCCN(C)Cc1nocc1[C@H]1CC[C@]2(CC1)CC(C)(C)CO2` [compound 118], it took 482 nM to reach half-maximal inhibition (IC50). Compared with the last molecule, the IC50 is about 7.2-fold higher.
Take `CNCCN(C)Cc1nccn1[C@H]1CC[C@@]2(CC1)CC(C)(C)CO2` [compound 69]: the half-inhibitory concentration (IC50) is 273 nM.
On to `CNCCN(C)Cc1c(C)noc1[C@H]1CC[C@]2(CC1)CC(C)(C)CO2` [compound 114], for which half-maximal inhibition (IC50) required 68 nM.
Still for that read-out and setting: the value for `CNCCN(C)Cc1c[nH]nc1C1CCC(C)(C)[C@H](COCCOC)C1` (stereo partly drawn) [compound 35, {2-[({3-[(3R)-3-[(2-methoxyethoxy)methyl]-4,4-dimethylcyclohexyl]-1H-pyrazol-4-yl}methyl)(methyl)amino]ethyl}(methyl)amine] was 110 nM; that for `CNCCN(C)Cc1cnnn1[C@H]1CC[C@@]2(CC1)CC(C)(C)CO2` [compound 65] was greater than 10000 nM; that for `CNCCN(C)Cc1c[nH]nc1[C@H]1CC[C@@]2(CC1)COC(C)(C)C2` [compound 126, N1-((3-((5r,8r)-3,3-dimethyl-2-oxaspiro[4.5]decan-8-yl)-1H-pyrazol-4-yl)methyl)-N1,N2-dimethylethane-1,2-diamine] was 21.3 nM.
The same measure, in the same setting: the value for `Cc1[nH]nc([C@H]2CC[C@]3(CC2)CC(C)(C)CO3)c1CN(C)CCN` [compound 52, N1-((3-((5r,8r)-3,3-dimethyl-1-oxaspiro[4.5]decan-8-yl)-5-methyl-1H-pyrazol-4-yl)methyl)-N1-methylethane-1,2-diamine] was 23.1 nM; that for `CNCCN(C)Cc1sc(C)nc1[C@H]1CC[C@]2(CC1)CC(C)(C)CO2` [compound 100] was 43.6 nM; that for `CNCCN(C)Cc1c(Cl)ncn1[C@H]1CC[C@]2(CC1)CC(C)(C)CO2` [compound 97] was 526 nM.
As to `CCOCC1(COCC)CCC(c2n[nH]cc2CN(C)CCN(C)C)CC1` [compound 121], the concentration for half-maximal inhibition (IC50) was found to be 58.2 nM.
Take `CNCCN(C)Cc1c[nH]nc1C1CCC2(CC1)CC(C)(C)OC2=O` (stereo not drawn) [compound 125]: the half-maximal inhibitory concentration (IC50) is 15.7 nM. Against the preceding molecule, the IC50 is about 3.7-fold lower.
With `CNCCN(C)Cc1c[nH]nc1[C@H]1CC[C@H](COCC(F)(F)F)CC1` [compound 24, N1,N2-dimethyl-N1-((3-((1r,4r)-4-((2,2,2-trifluoroethoxy)methyl)cyclohexyl)-1H-pyrazol-4-yl)methyl)ethane-1,2-diamine], half-maximal inhibition (IC50) required 18.3 nM.
Still for that read-out and setting: with `CNCCN(C)Cc1nnc(C)n1[C@H]1CC[C@@]2(CC1)CC(C)(C)CO2` [compound 71] the figure was 4320 nM.

Staying with this assay, now noted: […] PRMT8, 30 min preincubation, 150 nM peptide.
For `CNCCN(C)Cc1nn(C)nc1C1CCC2(CC1)CC(C)(C)CO2` (stereo not drawn) [compound 86], the IC50 amounted to 49.9 nM.
